For one test, the system named is SREBP pathway. Kind of test: SREBP luciferase reporter gene system (SRE-luciferase assay). It is filed as cell-based, human. The following applies: Huh-7/SRE-luc cells, sterol-deficient medium, 0.01-10 µM. In a few lines: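 Huh-7 cells stably carrying LDLR promoter-luciferase plus GFP were treated 16 h in sterol-deficient medium (5% lipoprotein-deficient serum, 2 µM lovastatin, 10 µM mevalonic acid) at 0.01–10 µM. Luciferase/GFP ratio measured as pathway activity; inhibition versus DMSO fitted to a four-parameter model for IC50.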

Test [1] concerns Fatty Acid Synthase (FASN) gene. As to the kind of experiment: Inhibition of FASN gene expression (qPCR) in Huh-7 cells. The following applies: Homo sapiens, Huh-7 cells, starvation medium, 16 hours, qPCR, class symbols, read-out: FASN IC50. It is filed as cell-based, human. As to the method: Huh-7 cells (purchased from ATCC) were cultured in DMEM medium (containing 10% fetal bovine serum LONSERA S711-001S) at 37°C in a 5% CO2 incubator. After 24 hours, the original medium was aspirated and replaced with DMEM starvation medium (containing 5% lipoprotein deficient serum (LPDS), 2 µM lovastatin, and 10 µM mevalonate). The control group was treated with dimethyl sulfoxide (DMSO), while the compound treatment groups were treated with different concentrations of compounds. The highest concentration of the compound was 3000 nM, with 3-fold dilutions, totaling 5 concentrations. The cells were cultured for 16 hours. Cell lysis was performed, followed by reverse transcription from cells to cDNA, and qPCR was performed to detect the expression of the SREBP target gene Fatty Acid Synthase (FASN) gene (FASN gene forward primer sequence: 5'-[…]-3', reverse primer sequence: 5'-[…]-3'). The IC50 was calculated. The test data for each test compound were analyzed using Prism software (with the DMSO-treated group as the reference to calculate the compound inhibition rate, fitted using the Prism log(inhibitor) vs. responseVariable slope (four-parameter) model, calculation formula: Y = Bottom + (Top - Bottom)/(1 + 10^((LogIC50 - X) × HillSlope))), to obtain the IC50 parameters of the compounds. Table 4: Inhibition results of FASN gene expression by compounds from some examples

Where two headings read alike, the source gives them in different places.

Regarding `C[C@H](CCCC(O)c1cccc2ncn(C)c12)[C@H]1CC[C@H]2[C@H]3[C@H](CC[C@]12C)[C@@]1(C)CC[C@H](O)[C@H](O)[C@@H]1CC3(F)F` (stereo partly drawn) [Compound 261, (1R,3aS,3bS,5aR,6R,7 S,9aR,9bS,11aR)-4,4-Difluoro-1-[(2R)-6-hydroxy-6-(3-methylbenzo[d]imidazol-4-yl)hexan-2-yl]-9a,11a-dimethylhexadecahyd ro-1H-cyclopenta[1,2-a]phenanthrene-6,7-diol], the IC50 in the test with SREBP pathway (Homo sapiens, Huh-7, 16 h) is 0.001 µM; in test [1] (Huh-7, 16 h), under 200 nM.

`C[C@H](CCCC(O)c1ccc(F)nc1OC1CC1)[C@H]1CC[C@H]2[C@H]3[C@H](CC[C@]12C)[C@@]1(C)CC[C@H](O)C[C@@H]1CC3(F)F` (stereo partly shown) [Compound 335]: the IC50 was 0.045 µM in the test with SREBP pathway (Homo sapiens, 16 hours) and under 200 nM in test [1].

Consider `COc1cccc(F)c1C(O)CC[C@@H](C)[C@H]1CC[C@H]2[C@H]3[C@H](CC[C@]12C)[C@@]1(C)CC[C@H](O)[C@H](O)[C@@H]1CC3(F)F` (single isomer, unassigned) [Compound 336], for which the half-maximal inhibitory concentration (IC50) in the test on SREBP pathway (Homo sapiens, Huh-7, 16 h) was 0.31 µM; in test [1] (Huh-7, 16 h) it was under 200 nM.

`C[C@H](CCCC(O)c1cccc2c1OC(F)(F)O2)[C@H]1CC[C@H]2[C@H]3[C@H](CC[C@]12C)[C@@]1(C)CC[C@H](O)[C@H](O)[C@@H]1CC3(F)F` (single isomer, unassigned) [Compound 194, (1R,3aS,3bS,5aR,6R,7S,9aR,9bS,11aR)-1-[(2R,6S)-6-(2,2-difluorobenzo[d][1,3]dioxol-4-yl)-6-hydroxyhexan-2-yl]-4,4-difluoro-9a,11a-dimethylhexadecahydro-1H-cyclopenta[1,2-a]phenanthrene-6,7-diol or (1R,3aS,3bS,5aR,6R,7S,9aR,9bS,11aR)-1-[(2R,6R)-6-(2,2-difluorobenzo[d][1,3]dioxol-4-yl)-6-hydroxyhexan-2-yl]-4,4-difluoro-9a,11a-dimethylhexadecahydro-1H-cyclopenta[1,2-a]phenanthrene-6,7-diol]: the IC50 was 0.102 µM in the test on SREBP pathway (Homo sapiens, Huh-7, 16 h) and 200 to 500 nM in test [1] (Huh-7, 16 h).

In the case of `C[C@H](CCCC(O)c1cccc(OC(F)(F)F)c1)[C@H]1CC[C@H]2[C@H]3[C@H](CC[C@]12C)[C@@]1(C)CC[C@H](O)[C@H](O)[C@@H]1CC3(F)F` (single isomer, unassigned) [Compound 191, (1R,3aS,3bS,5aR,6R,7S,9aR,9bS,11aR)-4,4-difluoro-1-[(2R,6R)-6-hydroxy-6-{3-[(trifluoromethyl)oxy]phenyl}hexan-2-yl]-9a,11a-dimethylhexadecahydro-1H-cyclopenta[1,2-a]phenanthrene-6,7-diol or (1R,3aS,3bS,5aR,6R,7S,9aR,9bS,11aR)-4,4-difluoro-1-[(2R,6S)-6-hydroxy-6-(2-methoxypyridin-3-yl)hexan-2-yl]-9a,11a-dimethylhexadecahydro-1H-cyclopenta[1,2-a]phenanthrene-6,7-diol], the IC50 was 0.246 µM in the test with SREBP pathway (16 hours) and 200 to 500 nM in test [1] (Huh-7, 16 h).

For the compound `COc1nc(F)ccc1[C@H](O)CCC[C@@H](C)[C@H]1CC[C@H]2[C@H]3[C@H](CC[C@]12C)[C@@]1(C)CC[C@H](O)C(=O)[C@@H]1CC3(F)F` (single isomer, unassigned) [Compound 260], the IC50 in the test with SREBP pathway (Homo sapiens, Huh-7, 16 h) was 0.03 µM; in test [1] (Huh-7, 16 h), under 200 nM.

Consider `C[C@H](CCC[C@@H](O)c1c(F)ccnc1F)[C@H]1CC[C@H]2[C@H]3[C@H](CC[C@]12C)[C@@]1(C)CC[C@H](O)[C@H](O)[C@@H]1CC3(F)F` (single isomer, unassigned) [Compound 232], for which the half-maximal inhibitory concentration (IC50) is 0.151 µM in the test on SREBP pathway (Homo sapiens, Huh-7, 16 h) and 200 to 500 nM in test [1] (Huh-7, 16 h).

As for `COc1cc(F)cc(F)c1C(O)CCC[C@@H](C)[C@H]1CC[C@H]2[C@H]3[C@H](CC[C@]12C)[C@@]1(C)CC[C@H](O)[C@H](O)[C@@H]1CC3(F)F` (single isomer, unassigned) [Compound 200, (1R,3aS,3bS,5aR,6R,7S,9aR,9bS,11aR)-1-[(2R,6S)-6-(4,6-difluoro-2-methoxyphenyl)-6-hydroxyhexan-2-yl]-4,4-difluoro-9a,11a-dimethylhexadecahydro-1H-cyclopenta[1,2-a]phenanthrene-6,7-diol or (1R,3aS,3bS,5aR,6R,7S,9aR,9bS,11aR)-1-[(2R,6R)-6-(4,6-difluoro-2-methoxyphenyl)-6-hydroxyhexan-2-yl]-4,4-difluoro-9a, 11a-dimethylhexadecahydro-1H-cyclopenta[1,2-a]phenanthrene-6,7-diol], the half-maximal inhibitory concentration (IC50) in the test on SREBP pathway (Homo sapiens, Huh-7, 16 h) is 0.053 µM; in test [1] (Huh-7, 16 h) it was under 200 nM.

As for `COc1cc(F)cc(F)c1C(O)CCC[C@@H](C)[C@H]1CC[C@H]2C3CC[C@H]4[C@@H](O)[C@@H](O)CC[C@]4(C)[C@H]3CC[C@]12C` (stereo in doubt) [Compound 104, (1R,3aS,5aR,6R,7S,9aR,9bS,11aR)-1-[(2R)-6-(2,4-Difluoro-6-methoxyphenyl)-6-hydroxyhexan-2-yl]-9a,11a-dimethylhexadecahydro-1H-cyclopenta[1,2-a]phenanthrene-6,7-diol], the 50% inhibitory concentration (IC50) is 0.25 µM with SREBP pathway (Homo sapiens, Huh-7, 16 h) and 200 to 500 nM in test [1] (Huh-7, 16 h).

Take `C[C@H](CCCC(O)c1cccc2cnn(C)c12)[C@H]1CC[C@H]2[C@H]3[C@H](CC[C@]12C)[C@@]1(C)CC[C@H](O)[C@H](O)[C@@H]1CC3(F)F` (single isomer, unassigned) [Compound 244, (1R,3aS,3bS,5aR,6R,7S,9aR,9bS,11aR)-4,4-difluoro-1-[(2R,6R)-6-hydroxy-6-(1-methylindazol-7-yl)hexan-2-yl]-9a,11a-dimethylhexadecahydro-1H-cyclopenta[1,2-a]phenanthrene-6,7-diol or (1R,3aS,3bS,5aR,6R,7S,9aR,9bS,11aR)-4,4-difluoro-1-[(2R,6S)-6-hydroxy-6-(1-methylindazol-7-yl)hexan-2-yl]-9a,11a-dimethylhexadecahydro-1H-cyclopenta[1,2-a]phenanthrene-6,7-diol]: the IC50 in the test with SREBP pathway (16 hours) was 0.06 µM; in test [1] (Huh-7, 16 h), under 200 nM.

`COc1ccc(C(O)CCC[C@@H](C)[C@H]2CC[C@H]3[C@H]4[C@H](CC[C@]23C)[C@@]2(C)CC[C@H](O)[C@H](O)[C@@H]2CC4(F)F)c(F)c1` (stereo partly drawn) [Compound 67, (1R,3aS,3bS,5aR,6R,7S,9aR,9bS,11aR)-4,4-difluoro-1-[(2R)-6-(2-fluoro-4-methoxyphenyl)-6-hydroxyhexan-2-yl]-9a,11a-dimethylhexadecahydro-1H-cyclopenta[1,2-a]phenanthrene-6,7-diol]: the IC50 in the test on SREBP pathway (Homo sapiens, Huh-7, 16 h) was 0.203 µM; in test [1] (Huh-7, 16 h), 200 to 500 nM.

For `C[C@H](CCC(=O)N(C)c1ccccc1F)[C@H]1CC[C@H]2[C@H]3[C@H](CC[C@]12C)[C@@]1(C)CC[C@H](O)[C@H](O)[C@@H]1CC3(F)F` [Compound 95, (4R)-4-[(1R,3aS,3bS,5aR,6R,7S,9aR,9bS,11aR)-4,4-difluoro-6,7-dihydroxy-9a,11a-dimethylhexadecahydro-1H-cyclopenta[1,2-a]phenanthren-1-yl]-N-(2-fluorophenyl)-N-methylpentanamide], the IC50 was 0.08 µM in the test on SREBP pathway (Homo sapiens, Huh-7, 16 h) and under 200 nM in test [1] (Huh-7, 16 h).

Turning to `COc1nc(F)ccc1C(O)CCC[C@@H](C)[C@H]1CC[C@H]2[C@H]3[C@H](CC[C@]12C)[C@@]1(C)CC[C@H](O)C[C@@H]1CC3(F)F` (stereo partly drawn) [Compound 301, (1R,3aS,3bR,5aR,7S,9aS,9bS,11aR)-4,4-difluoro-1-[(2R)-6-(6-fluoro-2-methoxypyridin-3-yl)-6-hydroxyhexan-2-yl]-9a,11a-dimethylhexadecahydro-1H-cyclopenta[1,2-a]phenanthren-7-ol], the IC50 in the test on SREBP pathway (Homo sapiens, Huh-7, 16 h) was 0.076 µM; in test [1] (Huh-7, 16 h) it was 200 to 500 nM.

Regarding `C[C@H](CCC[C@H](O)c1c(F)ccnc1F)[C@H]1CC[C@H]2[C@H]3[C@H](CC[C@]12C)[C@@]1(C)CC[C@H](O)[C@H](O)[C@@H]1CC3(F)F` (single isomer, unassigned) [Compound 233], the IC50 was 0.106 µM in the test with SREBP pathway (Homo sapiens, Huh-7, 16 h) and 200 to 500 nM in test [1] (Huh-7, 16 h).

On to `C[C@H](CCCC(O)c1nccs1)[C@H]1CC[C@H]2[C@H]3[C@H](CC[C@]12C)[C@@]1(C)CC[C@H](O)[C@H](O)[C@@H]1CC3(F)F` (stereo partly drawn) [Compound 89, (1R,3aS,3bS,5aR,6R,7S,9aR,9bS,11aR)-4,4-difluoro-1-[(2R)-6-hydroxy-6-(1,3-thiazol-2-yl)hexan-2-yl]-9a,11a-dimethylhexadecahydro-1H-cyclopenta[1,2-a]phenanthrene-6,7-diol], for which the IC50 in the test on SREBP pathway (Homo sapiens, Huh-7, 16 h) is 0.183 µM; in test [1] (Huh-7, 16 h) it was under 200 nM.

Take `CCOc1nc(F)ccc1[C@@H](O)CCC[C@@H](C)[C@H]1CC[C@H]2[C@H]3[C@H](CC[C@]12C)[C@@]1(C)CC[C@H](O)[C@H](O)[C@@H]1CC3(F)F` (single isomer, unassigned) [Compound 289]: the IC50 in the test with SREBP pathway (Homo sapiens, Huh-7, 16 h) is 0.342 µM; in test [1] (Huh-7, 16 h), under 200 nM.

`COc1cccc(F)c1C(O)CCC[C@@H](C)[C@H]1CC[C@H]2[C@H]3[C@H](CC[C@]12C)[C@@]1(C)CC[C@H](O)C[C@@H]1CC3(F)F` (single isomer, unassigned) [Compound 314]: the IC50 in the test with SREBP pathway (Homo sapiens, Huh-7, 16 h) is 0.14 µM; in test [1] (Huh-7, 16 h) it was 500 to 900 nM.

Source of the values: patent EP4752152A1, “STEROID COMPOUND, AND PREPARATION METHOD THEREFOR AND USE THEREOF” (Cholesgen (Shanghai) Co.Ltd., priority 2023, dated 2025).
